Measurements: patent publication US10919856B2 (priority 2016, dated 2021)
Where a name gives a salt, the structure may show the parent alone.

Experiments:
[1] = target: influenza virus neuraminidase (wild-type) (Influenza A virus, UniProt Q9IGQ6); assay type: biochemical
influenza = conditions: in vivo; cited from earlier work

Chain of influenza virus neuraminidase (wild-type) (Q9IGQ6 whole entry, looked up): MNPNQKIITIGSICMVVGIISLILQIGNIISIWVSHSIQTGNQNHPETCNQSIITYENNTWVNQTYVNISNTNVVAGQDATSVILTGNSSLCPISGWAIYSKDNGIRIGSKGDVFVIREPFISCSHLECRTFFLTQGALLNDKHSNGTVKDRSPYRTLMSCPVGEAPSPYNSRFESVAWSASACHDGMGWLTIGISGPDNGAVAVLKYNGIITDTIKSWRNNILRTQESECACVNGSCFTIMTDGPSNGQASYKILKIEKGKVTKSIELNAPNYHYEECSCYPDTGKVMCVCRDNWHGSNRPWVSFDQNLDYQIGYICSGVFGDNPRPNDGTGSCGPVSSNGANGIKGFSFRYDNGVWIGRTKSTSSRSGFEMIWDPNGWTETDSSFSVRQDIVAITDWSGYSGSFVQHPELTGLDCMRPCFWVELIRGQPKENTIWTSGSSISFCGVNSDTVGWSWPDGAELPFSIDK

Compound | inhibiting activity on wild-type virus strains [1] | reduction of severity level of influenza symptoms (influenza) [%] | shortening of the state of illness (influenza) [days]
COCCO[C@@H]1CCCN([C@@H]2C=C(C(=O)O)C[C@H](N)[C@H]2NC(C)=O)C1 [Example 1, (3R,4R,5S)-4-acetamido-5-amino-3-((3S)-3-(2-methoxylethoxyl)piperidin)-1-cyclohexene-1-carboxylic acid trifluoroacetate] | perfect inhibiting activities |  | 
COCCO[C@@H]1CCCN([C@@H]2C=C(C(=O)O)C[C@H](NC(=N)N)[C@H]2NC(C)=O)C1 [Example 11, (3R,4R,5S)-4-acetamido-5-guanidino-3-((3S)-(2-methoxylethyoxyl)piperidin)-1-cyclohexene-1-carboxylic acid trifluoroacetate] | perfect inhibiting activities |  | 
CCOC(=O)C1=C[C@@H](OC(CC)CC)[C@H](NC(C)=O)[C@@H](N)C1.O=P(O)(O)O [Oseltamivir phosphate, ethyl (3R,4R,5S)-4-acetamido-5-amino-3-(1-ethylpropoxyl)-1-cyclohexene-1-carboxylate phosphate] |  | 40 | 3.1
